Measurements published in article PMC8516330 (The AAPS Journal, 2021).

Experiment: Encapsulation efficiency of liposomes and lipodisks by RP-HPLC
Conditions: for Change of EE in lipodisks compared with liposomes: curcumin D/L 0.01, acyclovir D/L 0.03; for EE% (encapsulation efficiency), D/L 0.1: D/L ratio 0.1 (w/w), N = 3

Change of EE in lipodisks compared with liposomes | EE% (encapsulation efficiency), D/L 0.1 ([…]) | Encapsulation efficiency, lipodisks D/L 0.01 (D/L ratio 0.01) | Encapsulation efficiency, liposomes D/L 0.01 (liposomes, D/L ratio 0.01) | Encapsulation efficiency, liposomes D/L 0.03 ([…], D/L ratio 0.03, passive loading) | Encapsulation efficiency, lipodisks D/L 0.03 (lipodisks (62% DSPE-PEG2000), D/L ratio 0.03) | SMILES
did not significantly increase |  |  |  |  |  | Nc1nc2c(ncn2COCCO)c(=O)[nH]1 [Acyclovir, acyclovir]
remained constant | 11.41% | ~ 82.4% | ~ 82.4% |  |  | COc1cc(/C=C/C(=O)CC(=O)/C=C/c2ccc(O)c(OC)c2)ccc1O [Curcumin, curcumin]
 | 1.49% | 27.46% |  | 2.3% | 9.7% | C[C@@H]1C[C@H]2[C@@H]3CCC4=CC(=O)C=C[C@]4(C)[C@@]3(F)[C@@H](O)C[C@]2(C)[C@@]1(O)C(=O)CO [Dexamethasone, dexamethasone]
